Data as given in US20120245177A1, “CRYSTALLINE LEVOFOLINIC ACID AND PROCESS FOR ITS PREPARATION” (GMT FINE CHEMICALS SA, priority 2011, published 2012).

Columns and labels:
[1] = Long-term stability test (ICH conditions); assay type: physicochemical; settings: for Related substances: N^10-CHO-folic acid (D) (% m/m) / Related substances: PABG (A) (% area) / Sum of all relates substances (% area) / Water content (%) / Assay of Levofolinic acid (% m/m) / Appearance / Aspect of a 1.0% m/V solution in Tris solution corrected at pH = 8.1: Absorbance at 420 nm / Related substances: 5-CHO-4H-Pteroic acid (E) (% area) / Related substances: Any individual unknown impurities / Related substances: Dihydrofolic acid (G) (% area) / Related substances: Folic acid (C) (% area) / Related substances: N^5-N^10-diformyl-THF (B) (% area) / Related substances: N^10-CHO-dihydrofolic acid (F) (% area) / Optical rotation of a 1.0% m/V solution in Tris solution corrected at pH = 8.1 / Content of Dextrofolinic acid (H): long-term: 25±2° C., 60±5% relative humidity; for Assay of Levofolinic acid (% m/m): anhydrous and solvent free basis; for Appearance: specification white to pale yellow powder
Protocol: Two specimens of the product obtained in example 1 are subjected to accelerated stability tests and long-term stability tests, respectively; the tests are carried out according to ICH conditions. Long-term: 25±2° C., 60±5% relative humidity Analytical methods used for the stability studies tests are described in the calcium levofolinate monograph of the European Pharmacopoeia.

[2] = Solubility in water or hydroalcoholic mixtures; assay type: physicochemical; settings: pH range between 3.0 and 4.5
[3] = easily converted into by-products if pH lower than 3.0 or temperature reaches 60° C. during pH lowering; per U.S. Pat. No. 6,441,168 B1; cited from earlier work

Related substances: N^10-CHO-folic acid (D) (% m/m) ([1]; 6 months): <0.10 % m/m | Related substances: PABG (A) (% area) ([1]; 6 months): 0.10 % area | Sum of all relates substances (% area) ([1]; 6 months): 0.70 % area | Water content (%) ([1]; 6 months): 0.9% | Assay of Levofolinic acid (% m/m) ([1]; 6 months): 98.8 % m/m | Appearance ([1]; 6 months): Conform | Aspect of a 1.0% m/V solution in Tris solution corrected at pH = 8.1: Absorbance at 420 nm ([1]; 9 months): 0.04 | Related substances: 5-CHO-4H-Pteroic acid (E) (% area) ([1]; 9 months): 0.35 % area | Related substances: Any individual unknown impurities ([1]; 9 months): <0.10 % area | Related substances: Dihydrofolic acid (G) (% area) ([1]; 9 months): <0.10 % area | Related substances: Folic acid (C) (% area) ([1]; 9 months): <0.10 % area | Related substances: N^5-N^10-diformyl-THF (B) (% area) ([1]; 9 months): <0.10 % area | Related substances: N^10-CHO-dihydrofolic acid (F) (% area) ([1]; 9 months): 0.15 % area | Related substances: N^10-CHO-folic acid (D) (% m/m) ([1]; 9 months): <0.10 % m/m | Related substances: PABG (A) (% area) ([1]; 9 months): <0.10 % area | Sum of all relates substances (% area) ([1]; 9 months): 0.55 % area | Water content (%) ([1]; 9 months): 1.0% | Assay of Levofolinic acid (% m/m) ([1]; 9 months): 99.4 % m/m | Appearance ([1]; 9 months): Conform | Aspect of a 1.0% m/V solution in Tris solution corrected at pH = 8.1: Absorbance at 420 nm ([1]; 12 months): 0.06 | Related substances: 5-CHO-4H-Pteroic acid (E) (% area) ([1]; 12 months): 0.34 % area | Related substances: Any individual unknown impurities ([1]; 12 months): <0.10 % area | Related substances: Dihydrofolic acid (G) (% area) ([1]; 12 months): <0.10 % area | Related substances: Folic acid (C) (% area) ([1]; 12 months): <0.10 % area | Related substances: N^5-N^10-diformyl-THF (B) (% area) ([1]; 12 months): <0.10 % area | Related substances: N^10-CHO-dihydrofolic acid (F) (% area) ([1]; 12 months): 0.18 % area | Related substances: N^10-CHO-folic acid (D) (% m/m) ([1]; 12 months): <0.10 % m/m | Related substances: PABG (A) (% area) ([1]; 12 months): 0.11 % area | Sum of all relates substances (% area) ([1]; 12 months): 0.63 % area | Water content (%) ([1]; 12 months): 1.1% | Assay of Levofolinic acid (% m/m) ([1]; 12 months): 99.4 % m/m | Appearance ([1]; 12 months): Conform | Aspect of a 1.0% m/V solution in Tris solution corrected at pH = 8.1: Absorbance at 420 nm ([1]; 18 months): 0.05 | Optical rotation of a 1.0% m/V solution in Tris solution corrected at pH = 8.1 ([1]; 18 months): −13.1° | Related substances: 5-CHO-4H-Pteroic acid (E) (% area) ([1]; 18 months): 0.36 % area | Related substances: Any individual unknown impurities ([1]; 18 months): <0.10 % area | Related substances: Dihydrofolic acid (G) (% area) ([1]; 18 months): <0.10 % area | Related substances: Folic acid (C) (% area) ([1]; 18 months): <0.10 % area | Related substances: N^5-N^10-diformyl-THF (B) (% area) ([1]; 18 months): <0.10 % area | Related substances: N^10-CHO-dihydrofolic acid (F) (% area) ([1]; 18 months): 0.17 % area | Related substances: N^10-CHO-folic acid (D) (% m/m) ([1]; 18 months): <0.10 % m/m | Related substances: PABG (A) (% area) ([1]; 18 months): 0.11 % area | Sum of all relates substances (% area) ([1]; 18 months): 0.63 % area | Water content (%) ([1]; 18 months): 0.9% | Assay of Levofolinic acid (% m/m) ([1]; 18 months): 100.2 % m/m | Appearance ([1]; 18 months): Conform | Aspect of a 1.0% m/V solution in Tris solution corrected at pH = 8.1: Absorbance at 420 nm ([1]; 24 months): 0.06 | Content of Dextrofolinic acid (H) ([1]; 24 months): <0.10% | Related substances: 5-CHO-4H-Pteroic acid (E) (% area) ([1]; 24 months): 0.31 % area | Related substances: Any individual unknown impurities ([1]; 24 months): <0.10 % area | Related substances: Dihydrofolic acid (G) (% area) ([1]; 24 months): <0.10 % area | Related substances: Folic acid (C) (% area) ([1]; 24 months): <0.10 % area | Related substances: N^5-N^10-diformyl-THF (B) (% area) ([1]; 24 months): <0.10 % area | Related substances: N^10-CHO-dihydrofolic acid (F) (% area) ([1]; 24 months): 0.16 % area | Related substances: N^10-CHO-folic acid (D) (% m/m) ([1]; 24 months): <0.10 % m/m | Related substances: PABG (A) (% area) ([1]; 24 months): 0.13 % area | Sum of all relates substances (% area) ([1]; 24 months): 0.66 % area | Water content (%) ([1]; 24 months): 0.7% | Assay of Levofolinic acid (% m/m) ([1]; 24 months): 99.4 % m/m | Appearance ([1]; 24 months): Conform | Aspect of a 1.0% m/V solution in Tris solution corrected at pH = 8.1: Absorbance at 420 nm ([1]; 36 months): 0.08 | Content of Dextrofolinic acid (H) ([1]; 36 months): <0.10% | Optical rotation of a 1.0% m/V solution in Tris solution corrected at pH = 8.1 ([1]; 36 months): −14.9° | Related substances: 5-CHO-4H-Pteroic acid (E) (% area) ([1]; 36 months): 0.33 % area | Related substances: Any individual unknown impurities ([1]; 36 months): <0.10 % area | Related substances: Dihydrofolic acid (G) (% area) ([1]; 36 months): <0.10 % area | Related substances: Folic acid (C) (% area) ([1]; 36 months): <0.10 % area | Related substances: N^5-N^10-diformyl-THF (B) (% area) ([1]; 36 months): <0.10 % area | Related substances: N^10-CHO-dihydrofolic acid (F) (% area) ([1]; 36 months): 0.25 % area | Related substances: N^10-CHO-folic acid (D) (% m/m) ([1]; 36 months): <0.10 % m/m | Related substances: PABG (A) (% area) ([1]; 36 months): 0.16 % area | Sum of all relates substances (% area) ([1]; 36 months): 0.73 % area | Water content (%) ([1]; 36 months): 1.0% | Assay of Levofolinic acid (% m/m) ([1]; 36 months): 99.6 % m/m | Appearance ([1]; 36 months): Conform | Stability (conclusion from stability data of tables 2 and 3) ([1]; may resist unaltered during a shelf-life of up to three years): stable | Stability compared with known forms ([1]; versus calcium levofolinate of the known art or levofolinic acid amorphous of U.S. Pat. No. 5,134,235): better properties | Solubility [2]: scarcely soluble
Structure (SMILES): Nc1nc(=O)c2c([nH]1)NC[C@H](CNc1ccc(C(=O)N[C@@H](CCC(=O)O)C(=O)O)cc1)N2C=O [Example 1, (6S)—N(5)-formyl-5,6,7,8-tetrahydrofolic acid]
Stability [3]: unstable
